Laboratory results: ChEMBL document CHEMBL1201862, “PubChem BioAssay data set” (2004)
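Briefly, cells in 96-well plates were exposed to five compound concentrations for 48 h, and endpoints were estimated by linear interpolation. At the GI50, growth is halved.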 Activity calls are given as the source filed them. Rule as the data show it: active = GI50 up to about 1.1 µM and inactive = higher.

What was measured:
Assay in all cases: NCI tumour cell line growth inhibition, 48 h
786-0 = test system: 786-0
A498 = test system: A498
A549 = test system: A549
ACHN = test system: ACHN
BT-549 = test system: BT-549
CAKI-1 = test system: CAKI-1
CCRF-CEM = test system: CCRF-CEM
COLO 205 = test system: COLO 205
DU-145 = test system: DU-145
EKVX = test system: EKVX
HCC 2998 = test system: HCC 2998
HCT-116 = test system: HCT-116
HCT-15 = test system: HCT-15
HL-60 = test system: HL-60
HOP-62 = test system: HOP-62
HOP-92 = test system: HOP-92
HT-29 = test system: HT-29
Hs-578T = test system: Hs-578T
IGROV-1 = test system: IGROV-1
K562 = test system: K562
KM12 = test system: KM12
M14 = test system: M14
MCF7 = test system: MCF7
MDA-MB-231 = test system: MDA-MB-231
MDA-MB-435 = test system: MDA-MB-435
MDA-N = test system: MDA-N
MOLT-4 = test system: MOLT-4
Malme-3M = test system: Malme-3M
NCI-H226 = test system: NCI-H226
NCI-H23 = test system: NCI-H23
NCI-H460 = test system: NCI-H460
NCI-H522 = test system: NCI-H522
NCI/ADR-RES = test system: NCI/ADR-RES
OVCAR-3 = test system: OVCAR-3
OVCAR-4 = test system: OVCAR-4
OVCAR-5 = test system: OVCAR-5
OVCAR-8 = test system: OVCAR-8
PC-3 = test system: PC-3
RPMI-8226 = test system: RPMI-8226
RXF 393 = test system: RXF 393
SF-268 = test system: SF-268
SF-295 = test system: SF-295
SF-539 = test system: SF-539
SK-MEL-28 = test system: SK-MEL-28
SK-MEL-2 = test system: SK-MEL-2
SK-MEL-5 = test system: SK-MEL-5
SK-OV-3 = test system: SK-OV-3
SN12C = test system: SN12C
SNB-19 = test system: SNB-19
SNB-75 = test system: SNB-75
SR = test system: SR
SW-620 = test system: SW-620
T47D = test system: T47D
TK-10 = test system: TK-10
U-251 = test system: U-251
UACC-257 = test system: UACC-257
UACC-62 = test system: UACC-62
UO-31 = test system: UO-31
LOX IMVI = test system: LOX IMVI

For CC1CN(CCO)CC(C)O1 (centres undefined), the GI50 (786-0) was > 100 µM (inactive), the GI50 (A498) was > 100 µM (inactive) and the GI50 (A549) was > 100 µM (inactive). The GI50 (ACHN) was > 100 µM (inactive), the GI50 (BT-549) was > 100 µM (inactive) and the GI50 (CAKI-1) was > 100 µM (inactive). For the same compound, the GI50 (CCRF-CEM) was > 100 µM (inactive), the GI50 (COLO 205) was > 100 µM (inactive) and the GI50 (DU-145) was > 100 µM (inactive). For the same compound, the GI50 (EKVX) was > 100 µM (inactive), the GI50 (HCC 2998) was > 100 µM (inactive) and the GI50 (HCT-116) was > 100 µM (inactive). The GI50 (HCT-15) was over 100 µM, the GI50 (HL-60) was > 100 µM (inactive) and the GI50 (HOP-62) was > 100 µM (inactive). For the same compound, the GI50 (HOP-92) was > 100 µM (inactive), the GI50 (HT-29) was > 100 µM (inactive) and the GI50 (Hs-578T) was > 100 µM (inactive). For the same compound, the GI50 (IGROV-1) was > 100 µM (inactive), the GI50 (K562) was > 100 µM (inactive) and the GI50 (KM12) was > 100 µM (inactive). For the same compound, the GI50 (M14) was > 100 µM (inactive), the GI50 (MCF7) was > 100 µM (inactive) and the GI50 (MDA-MB-231) was > 100 µM (inactive). The GI50 (MDA-MB-435) was > 100 µM (inactive), the GI50 (MDA-N) was > 100 µM (inactive) and the GI50 (MOLT-4) was > 100 µM (inactive). For the same compound, the GI50 (Malme-3M) was > 100 µM (inactive), the GI50 (NCI-H226) was > 100 µM (inactive) and the GI50 (NCI-H23) was > 100 µM (inactive). For the same compound, the GI50 (NCI-H460) was > 100 µM (inactive), the GI50 (NCI-H522) was > 100 µM (inactive) and the GI50 (NCI/ADR-RES) was > 100 µM (inactive). The GI50 (OVCAR-3) was > 100 µM (inactive), the GI50 (OVCAR-4) was > 100 µM (inactive) and the GI50 (OVCAR-5) was > 100 µM (inactive). The GI50 (OVCAR-8) was > 100 µM (inactive), the GI50 (PC-3) was > 100 µM (inactive) and the GI50 (RPMI-8226) was > 100 µM (inactive). The GI50 (RXF 393) was > 100 µM (inactive), the GI50 (SF-268) was > 100 µM (inactive) and the GI50 (SF-295) was > 100 µM (inactive). The GI50 (SF-539) was > 100 µM (inactive), the GI50 (SK-MEL-28) was > 100 µM (inactive) and the GI50 (SK-MEL-2) was > 100 µM (inactive). The GI50 (SK-MEL-5) was > 100 µM (inactive), the GI50 (SK-OV-3) was > 100 µM (inactive) and the GI50 (SN12C) was > 100 µM (inactive). For the same compound, the GI50 (SNB-19) was > 100 µM (inactive), the GI50 (SNB-75) was > 100 µM (inactive) and the GI50 (SR) was > 100 µM (inactive). For the same compound, the GI50 (SW-620) was > 100 µM (inactive), the GI50 (T47D) was > 100 µM (inactive) and the GI50 (TK-10) was > 100 µM (inactive). The GI50 (U-251) was > 100 µM (inactive), the GI50 (UACC-257) was > 100 µM (inactive) and the GI50 (UACC-62) was > 100 µM (inactive). For the same compound, the GI50 (UO-31) was > 100 µM (inactive).

In the case of CSc1c(C(=O)Nc2ccc(Cl)cc2)c(N)nn1-c1ccccc1, the GI50 (786-0) is reported as 9.75 µM (inactive), the GI50 (A498) is reported as > 35.3 µM (inactive) and the GI50 (A549) is reported as > 24.5 µM (inactive). For the same compound, the GI50 (ACHN) was 78.7 µM (inactive), the GI50 (BT-549) was > 100 µM (inactive) and the GI50 (CAKI-1) was > 100 µM (inactive). For the same compound, the GI50 (CCRF-CEM) was > 100 µM (inactive), the GI50 (COLO 205) was > 100 µM (inactive) and the GI50 (DU-145) was > 100 µM (inactive). For the same compound, the GI50 (EKVX) was > 100 µM (inactive), the GI50 (HCC 2998) was > 100 µM (inactive) and the GI50 (HCT-116) was > 100 µM (inactive). For the same compound, the GI50 (HCT-15) was over 100 µM, the GI50 (HL-60) was > 100 µM (inactive) and the GI50 (HOP-62) was 80 µM (inactive). For the same compound, the GI50 (HOP-92) was > 100 µM (inactive), the GI50 (HT-29) was > 100 µM (inactive) and the GI50 (Hs-578T) was > 28.2 µM (inactive). The GI50 (IGROV-1) was > 100 µM (inactive), the GI50 (K562) was > 100 µM (inactive) and the GI50 (KM12) was > 100 µM (inactive). For the same compound, the GI50 (LOX IMVI) was > 100 µM (inactive), the GI50 (M14) was > 100 µM (inactive) and the GI50 (MCF7) was > 100 µM (inactive). The GI50 (MDA-MB-231) was 40.8 µM (inactive), the GI50 (MDA-MB-435) was > 100 µM (inactive) and the GI50 (MDA-N) was > 100 µM (inactive). For the same compound, the GI50 (MOLT-4) was > 100 µM (inactive), the GI50 (Malme-3M) was > 100 µM (inactive) and the GI50 (NCI-H226) was > 100 µM (inactive). For the same compound, the GI50 (NCI-H23) was > 100 µM (inactive), the GI50 (NCI-H460) was > 59.2 µM (inactive) and the GI50 (NCI-H522) was > 100 µM (inactive). The GI50 (NCI/ADR-RES) was > 58.7 µM (inactive), the GI50 (OVCAR-3) was > 100 µM (inactive) and the GI50 (OVCAR-5) was > 100 µM (inactive). For the same compound, the GI50 (OVCAR-8) was 21.1 µM (inactive), the GI50 (PC-3) was > 100 µM (inactive) and the GI50 (RPMI-8226) was > 100 µM (inactive). For the same compound, the GI50 (RXF 393) was 22.7 µM (inactive), the GI50 (SF-268) was > 100 µM (inactive) and the GI50 (SF-295) was > 100 µM (inactive). The GI50 (SF-539) was > 100 µM (inactive), the GI50 (SK-MEL-28) was > 100 µM (inactive) and the GI50 (SK-MEL-2) was > 100 µM (inactive). The GI50 (SK-MEL-5) was > 100 µM (inactive), the GI50 (SK-OV-3) was 19.6 µM (inactive) and the GI50 (SN12C) was > 100 µM (inactive). For the same compound, the GI50 (SNB-19) was > 100 µM (inactive), the GI50 (SNB-75) was 21.6 µM (inactive) and the GI50 (SR) was > 100 µM (inactive). For the same compound, the GI50 (SW-620) was > 100 µM (inactive), the GI50 (T47D) was > 100 µM (inactive) and the GI50 (TK-10) was > 38.9 µM (inactive). For the same compound, the GI50 (U-251) was 61.5 µM (inactive), the GI50 (UACC-257) was > 100 µM (inactive) and the GI50 (UACC-62) was > 100 µM (inactive). For the same compound, the GI50 (UO-31) was > 44.8 µM (inactive).

For O=S1(=O)CCN(Cc2ccccc2)/C1=N\S(=O)(=O)c1ccc(Cl)cc1, the GI50 (786-0) was 19.7 µM (inactive), the GI50 (A498) was 28.5 µM (inactive) and the GI50 (A549) was 65.3 µM (inactive). For the same compound, the GI50 (ACHN) was 18.8 µM (inactive), the GI50 (BT-549) was 17.2 µM (inactive) and the GI50 (CAKI-1) was 19.1 µM (inactive). The GI50 (CCRF-CEM) was 24.9 µM (inactive), the GI50 (COLO 205) was 19.4 µM (inactive) and the GI50 (DU-145) was 20.5 µM (inactive). The GI50 (EKVX) was 15.1 µM (inactive), the GI50 (HCC 2998) was 19.3 µM (inactive) and the GI50 (HCT-116) was 18.5 µM (inactive). For the same compound, the GI50 (HCT-15) was 20.3 µM, the GI50 (HL-60) was 22.8 µM (inactive) and the GI50 (HOP-62) was 65.2 µM (inactive). The GI50 (HOP-92) was 18.6 µM (inactive), the GI50 (HT-29) was 17.9 µM (inactive) and the GI50 (Hs-578T) was 26.2 µM (inactive). For the same compound, the GI50 (IGROV-1) was 17.8 µM (inactive), the GI50 (K562) was 35.6 µM (inactive) and the GI50 (KM12) was 27.4 µM (inactive). The GI50 (LOX IMVI) was 18.1 µM (inactive), the GI50 (M14) was 17.3 µM (inactive) and the GI50 (MCF7) was 22.8 µM (inactive). The GI50 (MDA-MB-231) was > 100 µM (inactive), the GI50 (MDA-MB-435) was 19.1 µM (inactive) and the GI50 (MDA-N) was 18.2 µM (inactive). For the same compound, the GI50 (MOLT-4) was 20.5 µM (inactive), the GI50 (NCI-H226) was 17.8 µM (inactive) and the GI50 (NCI-H23) was 18.9 µM (inactive). For the same compound, the GI50 (NCI-H460) was 22.3 µM (inactive), the GI50 (NCI-H522) was 14.5 µM (inactive) and the GI50 (NCI/ADR-RES) was 16.6 µM (inactive). For the same compound, the GI50 (OVCAR-3) was 19.4 µM (inactive), the GI50 (OVCAR-4) was 18.8 µM (inactive) and the GI50 (OVCAR-5) was 18.1 µM (inactive). The GI50 (OVCAR-8) was 17 µM (inactive), the GI50 (PC-3) was 18 µM (inactive) and the GI50 (RPMI-8226) was 25.8 µM (inactive). The GI50 (RXF 393) was 19.5 µM (inactive), the GI50 (SF-268) was 16.6 µM (inactive) and the GI50 (SF-295) was 48.2 µM (inactive). For the same compound, the GI50 (SF-539) was 18.7 µM (inactive), the GI50 (SK-MEL-28) was 18.3 µM (inactive) and the GI50 (SK-MEL-2) was 23.4 µM (inactive). The GI50 (SK-MEL-5) was 21.2 µM (inactive), the GI50 (SK-OV-3) was 47.4 µM (inactive) and the GI50 (SN12C) was 19.2 µM (inactive). For the same compound, the GI50 (SNB-19) was 57 µM (inactive), the GI50 (SNB-75) was 21.2 µM (inactive) and the GI50 (SR) was 24.2 µM (inactive). For the same compound, the GI50 (SW-620) was 19.1 µM (inactive), the GI50 (T47D) was 22.2 µM (inactive) and the GI50 (TK-10) was 17 µM (inactive). For the same compound, the GI50 (U-251) was 18 µM (inactive), the GI50 (UACC-257) was 20.7 µM (inactive) and the GI50 (UACC-62) was 17.8 µM (inactive). The GI50 (UO-31) was 17.5 µM (inactive).
